Paper PMC8236845
Structures can show the parent of a compound that is named as a salt.

Target: binding of recombinant, trimeric SARS-CoV-2 spike protein to recombinant human ACE2 (Severe acute respiratory syndrome coronavirus 2, UniProt P0DTC2, K986P/R682G/R683S/R685S/V987P)
Assay: biochemical
Set-up: species or system SARS-CoV-2 / human
Details: for EC50: read-out: EC50 (corrected)

CO[C@H]1C[C@H](O[C@@H]2/C(C)=C/C[C@@H]3C[C@@H](C[C@]4(CC[C@H](C)[C@@H](C5CCCCC5)O4)O3)OC(=O)[C@@H]3C=C(C)/C(=N/O)[C@H]4OC/C(=C\C=C\[C@@H]2C)[C@]43O)O[C@@H](C)[C@@H]1O [Selamectin]
% Inhibition: 97%

CNC(=O)c1cc(Oc2ccc(NC(=O)Nc3ccc(Cl)c(C(F)(F)F)c3)cc2)ccn1 [Sorafenib Tosylate]
% Inhibition, Screen: 21%

CN1CC(=O)N2[C@H](c3ccc4c(c3)OCO4)c3[nH]c4ccccc4c3C[C@@H]2C1=O [Tadalafil]
% Inhibition: 96%

CO[C@H]1C[C@@H]2CC[C@@H](C)[C@@](O)(O2)C(=O)C(=O)N2CCCC[C@H]2C(=O)O[C@H]([C@H](C)C[C@@H]2CC[C@@H](OC(=O)C(C)(CO)CO)[C@H](OC)C2)CC(=O)[C@H](C)/C=C(\C)[C@@H](O)[C@@H](OC)C(=O)[C@H](C)C[C@H](C)/C=C/C=C/C=C/1C [Temsirolimus (CCI-779, NSC 683864), Temsirolimus]
% Inhibition: 96%

COc1cc([C@@H]2c3cc4c(cc3[C@@H](O[C@@H]3O[C@@H]5CO[C@@H](c6cccs6)O[C@H]5[C@H](O)[C@H]3O)[C@H]3COC(=O)[C@H]23)OCO4)cc(OC)c1O [Teniposide]
% Inhibition: 97%

C=C(NC(=O)C(=C)NC(=O)c1csc(C2=N[C@@H]3c4csc(n4)[C@H]4NC(=O)c5csc(n5)[C@H]([C@](C)(O)[C@@H](C)O)NC(=O)[C@H]5CSC(=N5)/C(=C/C)NC(=O)[C@H]([C@@H](C)O)NC(=O)c5csc(n5)[C@]3(CC2)NC(=O)[C@H](C)NC(=O)C(=C)NC(=O)[C@H](C)NC(=O)[C@H]([C@@H](C)CC)N[C@@H]2C=Cc3c([C@H](C)O)cc(nc3[C@H]2O)C(=O)O[C@@H]4C)n1)C(N)=O [Thiostrepton]
% Inhibition: 99%

CCOC(=O)c1c(N)sc2c1CCN(Cc1ccccc1)C2.Cl [Tinoridine Hydrochloride]
% Inhibition: 90%
EC50: 257 µM

Cn1cncc1[C@@](N)(c1ccc(Cl)cc1)c1ccc2c(c1)c(-c1cccc(Cl)c1)cc(=O)n2C [Tipifarnib]
% Inhibition: 98%

CC[C@@]1(O)C(=O)OCc2c1cc1n(c2=O)Cc2cc3c(CN(C)C)c(O)ccc3nc2-1 [Topotecan]
inhibition of spike-ACE2 binding in the screen: did not inhibit

NC1CCN(c2nc3c(cc2F)c(=O)c(C(=O)O)cn3-c2ccc(F)cc2F)C1 (stereo not shown) [Tosufloxacin (P-Toluenesulfonic Acid), Tosufloxacin]
% Inhibition: 97%

Nc1nc(N)c2nc(-c3ccccc3)c(N)nc2n1 [Triamterene]
% Inhibition: 91%

COC[C@H]1C[C@@H](c2nc(-c3ccc4c(c3)COc3cc5c(ccc6nc([C@@H]7CC[C@H](C)N7C(=O)[C@@H](NC(=O)OC)C(C)C)[nH]c65)cc3-4)c[nH]2)N(C(=O)[C@H](NC(=O)OC)c2ccccc2)C1 [Velpatasvir]
% Inhibition: 93%

N#Cc1ccc2[nH]cc(CCCCN3CCN(c4ccc5oc(C(N)=O)cc5c4)CC3)c2c1 [Vilazodone HCl]
% Inhibition: 99%

CO[C@H]1C[C@@H]2CC[C@@H](C)[C@@](O)(O2)C(=O)C(=O)N2CCCC[C@H]2C(=O)O[C@H]([C@H](C)C[C@@H]2CC[C@H](n3cnnn3)[C@H](OC)C2)CC(=O)[C@H](C)/C=C(\C)[C@@H](O)[C@@H](OC)C(=O)[C@H](C)C[C@H](C)/C=C/C=C/C=C/1C [Zotarolimus(ABT-578), Zotarolimus]
% Inhibition: 96%

Avermectin B1
% Inhibition: 98%

Cefotiam Hexetil Hydrochloride
% Inhibition: 99%
EC50: 37.3 µM

Ivermectin
% inhibition in first-round screen: 89%
